Patent publication US20080026996A1, “Selective Vpac2 Receptor Reptide Agonists” (ELI LILLY AND COMPANY, priority 2004, published 2008)
pEC50, pIC50: −log10 of the molar value. Where a SMILES comes first, the peptide text is derived from it. Where no end group is shown, it is not given here. [ ]: non-standard residue; d: D form. The star is where a group is joined. Orn = NCCC[C@H](N)C(=O)O; Hexanoyl = CCCCCC(=O)*; Aib = CC(C)(N)C(=O)O

How the values were obtained:
human PAC1 = target: T1, human PAC1 (Homo sapiens, UniProt P41586); assay: Filter binding assay, membranes of cells transiently transfected with human PAC1, 125I-labeled PACAP-27 tracer (Table 2); parameters: expressed in transfected cells; details: read-out: Human PAC1 Receptor Binding
T1 sequence (P41586 21-468): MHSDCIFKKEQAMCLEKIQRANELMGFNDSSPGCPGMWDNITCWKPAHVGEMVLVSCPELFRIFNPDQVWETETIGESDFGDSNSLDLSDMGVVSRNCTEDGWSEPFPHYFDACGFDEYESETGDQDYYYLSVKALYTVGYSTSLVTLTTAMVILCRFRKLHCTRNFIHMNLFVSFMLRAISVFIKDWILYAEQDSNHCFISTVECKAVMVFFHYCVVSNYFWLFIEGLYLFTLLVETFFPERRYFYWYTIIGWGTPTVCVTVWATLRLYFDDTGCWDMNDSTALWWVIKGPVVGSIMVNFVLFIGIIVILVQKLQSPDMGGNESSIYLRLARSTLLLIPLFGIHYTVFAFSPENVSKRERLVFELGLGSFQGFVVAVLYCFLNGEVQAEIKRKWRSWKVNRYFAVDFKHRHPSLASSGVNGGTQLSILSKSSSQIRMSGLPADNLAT
Procedure, shortened: (§1)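 Radioligand displacement was measured with 2.5 μg membrane protein per well and roughly 40000 cpm of iodinated tracer. After a 1-hour incubation, bound and free label were separated on BSA-blocked glass-fibre filters and quantified by scintillation.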

human VPAC2 [1] = target: T2, human VPAC2 (Homo sapiens, UniProt P41587); assay: Alpha screen cAMP in vitro potency, human VPAC2 receptor; type: cell-based; details: cAMP generation; single result from two analyses performed in a single run; read-out: Human VPAC2 Receptor: Alpha Screen EC50
T2 construct: expressed in transfected cells
T2 sequence (P41587 24-438): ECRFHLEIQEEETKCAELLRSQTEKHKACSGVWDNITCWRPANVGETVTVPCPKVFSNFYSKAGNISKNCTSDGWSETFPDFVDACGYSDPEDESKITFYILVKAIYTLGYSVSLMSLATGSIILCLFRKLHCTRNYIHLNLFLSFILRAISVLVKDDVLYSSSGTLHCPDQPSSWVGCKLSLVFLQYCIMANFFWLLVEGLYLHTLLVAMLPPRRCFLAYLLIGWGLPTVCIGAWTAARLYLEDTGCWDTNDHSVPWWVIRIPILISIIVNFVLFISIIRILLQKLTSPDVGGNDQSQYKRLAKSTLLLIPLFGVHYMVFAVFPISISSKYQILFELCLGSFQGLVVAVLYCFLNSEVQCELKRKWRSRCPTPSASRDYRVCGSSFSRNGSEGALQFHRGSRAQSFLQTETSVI
Procedure, shortened: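 This followed a 60 min stimulation of 50,000 enzyme-free-dissociated cells per point with acceptor beads in stimulation buffer.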

human VPAC1 = target: T3, human VPAC1 (Homo sapiens, UniProt P32241); assay: Filter binding assay, membranes of cells transiently transfected with human VPAC1, 125I-labeled VIP tracer (Table 2); parameters: expressed in transfected cells; details: read-out: Human VPAC1 Receptor Binding
T3 sequence (P32241 31-457): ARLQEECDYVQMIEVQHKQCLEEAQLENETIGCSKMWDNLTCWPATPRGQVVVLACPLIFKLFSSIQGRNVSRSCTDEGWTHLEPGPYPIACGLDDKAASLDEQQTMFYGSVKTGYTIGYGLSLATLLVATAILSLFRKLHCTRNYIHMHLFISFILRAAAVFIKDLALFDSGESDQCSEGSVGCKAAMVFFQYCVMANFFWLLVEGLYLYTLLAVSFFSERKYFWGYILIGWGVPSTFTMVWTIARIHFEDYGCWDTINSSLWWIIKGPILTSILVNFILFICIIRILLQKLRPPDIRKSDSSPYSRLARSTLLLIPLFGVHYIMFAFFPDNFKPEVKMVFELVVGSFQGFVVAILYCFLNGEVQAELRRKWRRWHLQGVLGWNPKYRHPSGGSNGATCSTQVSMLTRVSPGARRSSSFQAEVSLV
Procedure, shortened: as §1

[2] = Rat serum stability studies (remaining active peptide by DiscoveRx cAMP on CHO-VPAC2 cells); type: in vitro ADME
Procedure, shortened: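 EC50 from a DiscoveRx cAMP read-out on CHO-VPAC2 cells indexes how much peptide stays active after 18 h in rat serum at 37° C without aprotinin, against an aprotinin-protected 4° C aliquot.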

human VPAC2 [3] = target: T2, human VPAC2; assay: Filter binding assay, membranes of stable VPAC2 cell line, 125I-labeled VIP tracer (Table 2); details: read-out: Human VPAC2 Receptor Binding
Procedure, shortened: as §1

Row | Compound | pIC50 (human PAC1) | pEC50 (human VPAC2 [1]) | pIC50 (human VPAC1) | Rat Serum Stability (estimated purity in % after 18 hours) [2] [%] | pIC50 (human VPAC2 [3])
1 | Hexanoyl-HSDAVFTDNYTRLRKQVAAKKYVQSIKNKRYGGPSSGAPPPS [Agonist P234] | 6.61 | 9.80 | 6.19 | 0.69 | 9.48
2 | Hexanoyl-HSDAVFTDNYTRLLKQVAAKKYLQSIKNKRYGGPSSGAPPPS [Agonist P174] | 6.21 | 9.59 | 6.52 | 1.91 | 7.26
3 | Hexanoyl-HSDAVFTDNYTRLRKQVAAVKYLQSIKNKRYGGPSSGAPPPS [Agonist P146] | 5.81 | 9.77 | 6.40 | 0.53 | 9.28
4 | CCCCCC(=O)N[C@@H](Cc1c[nH]cn1)C(=O)N[C@@H](CO)C(=O)N[C@@H](CC(=O)O)C(=O)N[C@@H](C)C(=O)N[C@H](C(=O)N[C@@H](Cc1ccccc1)C(=O)N[C@H](C(=O)N[C@@H](CC(=O)O)C(=O)N[C@@H](CC(N)=O)C(=O)N[C@@H](Cc1ccc(O)cc1)C(=O)N[C@H](C(=O)N[C@@H](CCCNC(=N)N)C(=O)N[C@@H](CC(C)C)C(=O)N[C@@H](CCCNC(=N)N)C(=O)NC(C)(C)C(=O)N[C@@H](CCC(N)=O)C(=O)N[C@H](C(=O)N[C@@H](C)C(=O)N[C@@H](C)C(=O)N[C@@H](CCCCN)C(=O)NC(C)(C)C(=O)N[C@@H](Cc1ccc(O)cc1)C(=O)N[C@@H](CC(C)C)C(=O)N[C@@H](CCC(N)=O)C(=O)N[C@@H](CO)C(=O)N[C@H](C(=O)N[C@@H](CCCCN)C(=O)N[C@@H](CCC(N)=O)C(=O)N[C@@H](CCCCN)C(=O)NCC(=O)NCC(=O)N1CCC[C@H]1C(=O)N[C@@H](CO)C(=O)N[C@@H](CO)C(=O)NCC(=O)N[C@@H](C)C(=O)N1CCC[C@H]1C(=O)N1CCC[C@H]1C(=O)N1CCC[C@H]1C(=O)N[C@@H](CO)C(=O)O)[C@@H](C)CC)C(C)C)[C@@H](C)O)[C@@H](C)O)C(C)C [Agonist P295] (Hexanoyl-HSDAVFTDNYTRLR[Aib]QVAAK[Aib]YLQSIKQKGGPSSGAPPPS-OH; C-terminus assumed) | < 4.60 | 9.41 | < 5.52 | 22.22 | 9.12
5 | Hexanoyl-HSDAVFTDNYTRLRKQVALKKYLQSIKNKRYGGPSSGAPPPS [Agonist P155] | 6.83 | 9.62 | 6.64 | 0.25 | 9.15
6 | Hexanoyl-HSDAVFTDNYTRLRKQVAAKKYWQSIKNKRYGGPSSGAPPPS [Agonist P230] | 6.33 | 9.52 | 6.18 | 0.53 | 9.12
7 | Hexanoyl-HGEGTFTDNYTRLRKQVAAKKYLQSIKNKRYGGPSSGAPPPS [Agonist P222] | 6.33 | 9.29 | 6.75 | 0.23 | 8.98
8 | Hexanoyl-HSDAVFTDNYTRLRKQVAAFKYLQSIKNKRYGGPSSGAPPPS [Agonist P148] | 6.00 | 10.00 | 6.61 | <0.10 | 9.11
9 | Hexanoyl-HSDAVFTDNYTRLRAQLAAQKYLQSIKNKRYGGPSSGAPPPS [Agonist P142] | 5.92 | 9.82 | 6.44 | 0.51 | 9.24
10 | Hexanoyl-HSDAVFTDNYTRLQKQVAAK[Aib]YLQSIKNKRYGGPSSGAPPPS [Agonist P251] | < 4.60 | 9.04 | < 5.52 | 6.63 | 8.63
11 | Hexanoyl-HSDAVFTDNYTRLRAQVAAKKYLQSIKNKRYGGPSSGAPPPS [Agonist P139] | < 4.60 | 9.70 | 6.63 | 0.33 | 9.47
12 | Hexanoyl-HSDAVFTDNYTRLR[Orn]QVAAKKYLQSIKNKRYGGPSSGAPPPS [Agonist P307] | 6.53 | 9.49 | 6.56 | 0.32 | 9.55
13 | Hexanoyl-HSDAVFTDNYTRLRKQVAATKYLQSIKNKRYGGPSSGAPPPS [Agonist P152] | 6.17 | 9.77 | 6.29 | 0.06 | 9.43
14 | Hexanoyl-HSDAVFTDNYTRLR[Aib]QVAALKYLQSIKNKRYGGPSSGAPPPS [Agonist P265] | < 4.60 | 9.68 | < 5.52 | 8.70 | 9.17
15 | Hexanoyl-HSDAVFTDNYTRLQKQVAAQKYLQSIKNKRYGGPSSGAPPPS [Agonist P252] | < 4.60 | 9.59 | 5.93 | 1.19 | 9.01
16 | Hexanoyl-HSDAVFTDNYTRL[Aib]KQVAAQKYLQSIKNKRYGGPSSGAPPPS [Agonist P243] | < 4.60 | 9.55 | < 5.52 | 12.12 | 8.26
17 | Hexanoyl-HSDALFTDNYTRLRKQVAAKKYLQSIKNKRYGGPSSGAPPPS [Agonist P289] | 6.49 | 9.80 | 6.59 | 0.04 | 9.42
18 | Hexanoyl-HVDAVFTDNYTRLRKQVAAKKYLQSIKNKRYGGPSSGAPPPS [Agonist P99] | 5.69 | 9.85 | 6.40 | 0.61 | 8.76
19 | CCCCCC(=O)N[C@@H](Cc1c[nH]cn1)C(=O)N[C@@H](CO)C(=O)N[C@@H](CC(=O)O)C(=O)N[C@@H](C)C(=O)N[C@H](C(=O)N[C@@H](Cc1ccccc1)C(=O)N[C@H](C(=O)N[C@@H](CC(=O)O)C(=O)N[C@@H](CC(N)=O)C(=O)N[C@@H](Cc1ccc(O)cc1)C(=O)N[C@H](C(=O)N[C@@H](CCCNC(=N)N)C(=O)N[C@@H](CC(C)C)C(=O)N[C@@H](CCCNC(=N)N)C(=O)NC(C)(C)C(=O)N[C@@H](CCC(N)=O)C(=O)N[C@H](C(=O)N[C@@H](C)C(=O)N[C@@H](C)C(=O)N[C@@H](CCCCN)C(=O)NC(C)(C)C(=O)N[C@@H](Cc1ccc(O)cc1)C(=O)N[C@@H](CC(C)C)C(=O)N[C@@H](CCC(N)=O)C(=O)N[C@@H](CO)C(=O)N[C@H](C(=O)N[C@@H](CCCCN)C(=O)N[C@@H](CCC(N)=O)C(=O)NCC(=O)NCC(=O)N1CCC[C@H]1C(=O)N[C@@H](CO)C(=O)N[C@@H](CO)C(=O)NCC(=O)N[C@@H](C)C(=O)N1CCC[C@H]1C(=O)N1CCC[C@H]1C(=O)N1CCC[C@H]1C(=O)N[C@@H](CO)C(=O)O)[C@@H](C)CC)C(C)C)[C@@H](C)O)[C@@H](C)O)C(C)C [Agonist P298] (Hexanoyl-HSDAVFTDNYTRLR[Aib]QVAAK[Aib]YLQSIKQGGPSSGAPPPS-OH; C-terminus assumed) | < 4.60 | 9.30 | < 5.52 | 30.97 | 8.09
